Results on three molecules are retold here after patent publication US20050106249A1 (priority 2002, published 2005).

A value given as a limit tells only on which side of the number the result lay.

Series [1] has as its system healthy male subjects. Briefly: Example 5 cold pain test. Conditions: 10 mg IV infusion over 15 min.
For series [2], the system named is healthy male subjects. As to the kind of experiment: Example 5 pupil size. It is filed as in vivo, human. Conditions: IV morphine 10 mg; Example 2 SZO-24 dosage form 2×20 mg.
For series [3] the following is noted: analyte in plasma after 40 mg (oxycodone HCl) SZO-24 dosage form.
The conditions of series [4]: human plasma; orally administered immediate release oxycodone; cited from earlier work.
The test system of series [5] is Male Sprague-Dawley (SD) rats. Briefly: Example 8 rat tolerance study, tail-flick assay. To be noted: for Tail flick results: mean ± SD. A general note: Thermal pain tests record how soon the animal reacts.
Method: The biphasic dosing regimen used subcutaneous (SC) infusion, and the SZO regimen used subcutaneously-implanted ALZET® osmotic pumps. The vehicle control for the study was 0.9% saline.
The rodent tail-flick assay was used to assess analgesia (antinociception). […] In the assay, rodents are briefly restrained and radiant heat is applied to the tip of the tail. The time it takes for the animal to flick its tail is recorded; a delay in this response compared to pre-dose readings is indicative of antinociception.
An IITC Model 33 Tail Flick Analgesia Meter was used to apply heat to the animal's tail (IITC Life Science, Woodland Hills, Calif.). […] (this temperature allows pre-warming of the animal's tail to allow for more uniform measurements from day-to-day and test-to-test); • (3) Cutoff Time: 10 seconds (i.e., the length of time from the start of the test until the unit automatically ends the test to prevent tissue damage).
The animals were briefly restrained in plexiglass restrainers and radiant heat was applied to the tip of the animal's tail (approximately 1-2 cm from the tip). After the temperature reached 30° C., the meter increased the light intensity providing a noxious stimulus to the animal's tail. The time in seconds for the animal to flick its tail was recorded for each animal.
Tail flick latency values were converted to a percentage of the maximum possible effect (%MPE) using the following formula: %MPE=100×(ΔL/ΔLmax) where: ΔL=Post-dose Latency−Pre-dose Latency, and ΔLmax=Cutoff Time−Pre-dose Latency.
For the biphasic dosing regimen, the animals were subcutaneously infused using a computer-controlled Harvard syringe pump. […] The animals had catheters implanted subcutaneously with approximately 7 cm of PE 10 tubing. The tubing was secured with sutures and sterile surgical skin glue to prevent accidental removal of the catheter.
For the SZO dosing regimen, ALZET® osmotic pumps (Model 2ML1) were implanted subcutaneously in the animals. […] For the SZO dosing, the rats were not tethered.
Male Sprague-Dawley (SD) rats obtained from Charles River (Hollister, Calif.) and weighing at least 200g were used in the experiments. Extra animals were employed in the biphasic dosing regimen to take account of damaged catheters, but only enough animals were dosed on Day +3 to replace the animals with damaged catheters.
Intuitively, the difference between the effect of the same test on Day +3 and Day −1 should be a direct measure of tolerance. The data collected from rats tested for responses at 0, 0.25, 0.5, 0.75, and 1 mg/kg were thus used to perform the statistical analysis.
The data (difference between Day +3 and Day −1) were analyzed by the analysis of variance (ANOVA) method. The full variance model consisted of the three primary factors, their first-order interaction terms and their second order interaction term, namely: • dosing regimen, • 3-day treatment, • tail flick testing dose, • dosing regimen×3-day treatment, • dosing regimen×tail flick testing dose, • 3-day treatment×tail flick testing dose, and • dosing regiment×3-day treatment x tail flick testing dose.
The conditions of series [6]: cited from earlier work.

Regarding `CN1CC[C@]23c4c5ccc(O)c4O[C@H]2[C@@H](O)C=C[C@H]3[C@H]1C5` [IV morphine, morphine], the “separation from placebo in the cold pain test” value with healthy male subjects [1] is “did not statistically separate from placebo”. For the same molecule, in the series on healthy male subjects [2], the pupil size changes result is given as “consistent with their respective pharmacokinetic profiles”.
On to `COc1ccc2c3c1O[C@H]1C(=O)CC[C@@]4(O)[C@@H](C2)NCC[C@]314` [Noroxycodone], for which, in series [3], the “AUCinf, single dose” value was determined as 421.2 ng·h/mL and the “Cmax, single-dose plasma concentration” value is listed as 13.12 ng/mL.
With `COc1ccc2c3c1OC1C(=O)CC[C@@]4(O)[C@@H](C2)N(C)CC[C@]314` (stereo partly shown) [oxycodone, 4,5-epoxy-14-hydroxy-3-methoxy-17-methylmorphinan-6-one], the half-life result in series [4] is on record as “about 3.2 hours”. Moreover, the Tail flick results in series [5] (Biphasic dosing (SC infusion, syringe pump, 10 mg/(kg · d)), 3-day treatment oxycodone, testing dose 0 mg/kg, Day +3, n = 7) turned out to be 1.55 ± 4.70 % MPE; in series [5] (Biphasic dosing (SC infusion, syringe pump, 10 mg/(kg · d)), 3-day treatment oxycodone, testing dose 0.25 mg/kg SC, Day +3, n = 8), 0.48 ± 2.28 % MPE; in series [5] (Biphasic dosing (SC infusion, syringe pump, 10 mg/(kg · d)), 3-day treatment oxycodone, testing dose 0.25 mg/kg SC, Day −1, n = 8), 4.75 ± 6.80 % MPE; in series [5] (Biphasic dosing (SC infusion, syringe pump, 10 mg/(kg · d)), 3-day treatment oxycodone, testing dose 0.5 mg/kg SC, Day +3, n = 8) it was 10.64 ± 7.72 % MPE; in series [5] (Biphasic dosing (SC infusion, syringe pump, 10 mg/(kg · d)), 3-day treatment oxycodone, testing dose 0.5 mg/kg SC, Day −1, n = 8), 34.19 ± 28.28 % MPE; in series [5] (Biphasic dosing (SC infusion, syringe pump, 10 mg/(kg · d)), 3-day treatment oxycodone, testing dose 0.75 mg/kg SC, Day −1, n = 8), 49.32 ± 32.89 % MPE. For the same molecule, the Tail flick results came out at 30.73 ± 19.05 % MPE in series [5] (Biphasic dosing (SC infusion, syringe pump, 10 mg/(kg · d)), 3-day treatment oxycodone, testing dose 1 mg/kg SC, Day +3, n = 8); 84.61 ± 27.43 % MPE in series [5] (Biphasic dosing (SC infusion, syringe pump, 10 mg/(kg · d)), 3-day treatment oxycodone, testing dose 1 mg/kg SC, Day −1, n = 8); 100.00 ± 0.00 % MPE in series [5] (Biphasic dosing (SC infusion, syringe pump, 10 mg/(kg · d)), 3-day treatment oxycodone, testing dose 1.5 mg/kg SC, Day −1, n = 8); 84.81 ± 26.06 % MPE in series [5] (Biphasic dosing (SC infusion, syringe pump, 10 mg/(kg · d)), 3-day treatment oxycodone, testing dose 3.0 mg/kg SC, Day +3, n = 8); 9.25 ± 12.00 % MPE in series [5] (Biphasic dosing group, 3-day treatment saline, testing dose 0.25 mg/kg SC, Day +3, n = 8); 13.82 ± 7.87 % MPE in series [5] (Biphasic dosing group, 3-day treatment saline, testing dose 0.25 mg/kg SC, Day −1, n = 8). The Tail flick results was found to be 15.22 ± 12.44 % MPE in series [5] (Biphasic dosing group, 3-day treatment saline, testing dose 0.5 mg/kg SC, Day +3, n = 8); 26.59 ± 22.79 % MPE in series [5] (Biphasic dosing group, 3-day treatment saline, testing dose 0.5 mg/kg SC, Day −1, n = 8); 48.59 ± 39.89 % MPE in series [5] (Biphasic dosing group, 3-day treatment saline, testing dose 0.75 mg/kg SC, Day +3, n = 8); 73.56 ± 28.57 % MPE in series [5] (Biphasic dosing group, 3-day treatment saline, testing dose 0.75 mg/kg SC, Day −1, n = 8); 46.00 ± 18.96 % MPE in series [5] (Biphasic dosing group, 3-day treatment saline, testing dose 1 mg/kg SC, Day +3, n = 7); 89.52 ± 20.25 % MPE in series [5] (Biphasic dosing group, 3-day treatment saline, testing dose 1 mg/kg SC, Day −1, n = 7). Moreover, the Tail flick results in series [5] (Biphasic dosing group, 3-day treatment saline, testing dose 1.5 mg/kg SC, Day −1, n = 8) is recorded as 92.48 ± 16.05 % MPE; in series [5] (Biphasic dosing group, 3-day treatment saline, testing dose 3.0 mg/kg SC, Day +3, n = 8) it was 92.97 ± 15.65 % MPE; in series [5] (SZO dosing (SC ALZET, 10 mg/(kg · d)), 3-day treatment oxycodone, testing dose 0 mg/kg, Day +3, n = 8), −4.75 ± 8.51 % MPE; in series [5] (SZO dosing (SC ALZET, 10 mg/(kg · d)), 3-day treatment oxycodone, testing dose 0.25 mg/kg SC, Day +3, n = 8), −2.07 ± 4.18 % MPE; in series [5] (SZO dosing (SC ALZET, 10 mg/(kg · d)), 3-day treatment oxycodone, testing dose 0.25 mg/kg SC, Day −1, n = 8), 14.72 ± 16.16 % MPE; in series [5] (SZO dosing (SC ALZET, 10 mg/(kg · d)), 3-day treatment oxycodone, testing dose 0.5 mg/kg SC, Day +3, n = 8), 8.48 ± 17.38 % MPE. For the same molecule, the Tail flick results in series [5] (SZO dosing (SC ALZET, 10 mg/(kg · d)), 3-day treatment oxycodone, testing dose 0.5 mg/kg SC, Day −1, n = 8) worked out at 33.12 ± 19.58 % MPE; in series [5] (SZO dosing (SC ALZET, 10 mg/(kg · d)), 3-day treatment oxycodone, testing dose 0.75 mg/kg SC, Day +3, n = 8) it was 7.90 ± 11.36 % MPE; in series [5] (SZO dosing (SC ALZET, 10 mg/(kg · d)), 3-day treatment oxycodone, testing dose 0.75 mg/kg SC, Day −1, n = 8), 60.76 ± 31.45 % MPE; in series [5] (SZO dosing (SC ALZET, 10 mg/(kg · d)), 3-day treatment oxycodone, testing dose 1 mg/kg SC, Day +3, n = 8), 23.75 ± 25.96 % MPE; in series [5] (SZO dosing (SC ALZET, 10 mg/(kg · d)), 3-day treatment oxycodone, testing dose 1 mg/kg SC, Day −1, n = 8) it was 80.15 ± 36.76 % MPE; in series [5] (SZO dosing (SC ALZET, 10 mg/(kg · d)), 3-day treatment oxycodone, testing dose 1.5 mg/kg SC, Day −1, n = 8) it was 91.44 ± 24.22 % MPE. Moreover, the Tail flick results in series [5] (SZO dosing (SC ALZET, 10 mg/(kg · d)), 3-day treatment oxycodone, testing dose 3.0 mg/kg SC, Day +3, n = 8) came to 94.35 ± 11.48 % MPE; in series [5] (SZO dosing group, 3-day treatment saline, testing dose 0.25 mg/kg SC, Day +3, n = 8), 7.44 ± 11.94 % MPE; in series [5] (SZO dosing group, 3-day treatment saline, testing dose 0.25 mg/kg SC, Day −1, n = 8), 13.69 ± 8.94 % MPE; in series [5] (SZO dosing group, 3-day treatment saline, testing dose 0.5 mg/kg SC, Day +3, n = 8) it was 8.92 ± 11.30 % MPE; in series [5] (SZO dosing group, 3-day treatment saline, testing dose 0.5 mg/kg SC, Day −1, n = 8), 21.86 ± 13.71 % MPE; in series [5] (SZO dosing group, 3-day treatment saline, testing dose 0.75 mg/kg SC, Day +3, n = 8), 51.09 ± 46.28 % MPE. Also, the Tail flick results in series [5] (SZO dosing group, 3-day treatment saline, testing dose 0.75 mg/kg SC, Day −1, n = 8) is 65.33 ± 32.06 % MPE; in series [5] (SZO dosing group, 3-day treatment saline, testing dose 1 mg/kg SC, Day +3, n = 8), 35.55 ± 27.94 % MPE; in series [5] (SZO dosing group, 3-day treatment saline, testing dose 1 mg/kg SC, Day −1, n = 8), 90.33 ± 19.58 % MPE; in series [5] (SZO dosing group, 3-day treatment saline, testing dose 1.5 mg/kg SC, Day −1, n = 8) it was 100.00 ± 0.00 % MPE; in series [5] (SZO dosing group, 3-day treatment saline, testing dose 3.0 mg/kg SC, Day +3, n = 8), 100.00 ± 0.00 % MPE. The “tolerance, SZO dosing regimen versus biphasic dosing regimen” value in series [5] (full ANOVA model, 158 rats) is listed as “not statistically significantly different”. Also, in series [5] (full ANOVA model, p=0.0039), the “tolerance, rats treated with oxycodone for 3 days versus saline” value is on record as “statistically different”. In series [5] (reduced ANOVA model, not statistically different at α 0.05), the “estimated mean tolerance difference between the SZO dosing regimen and the biphasic dosing regimen” value was −3.2 %MPE. In series [5] (reduced ANOVA model, p=0.0035, testing doses 0-1 mg/kg), the “estimated mean tolerance difference (Day +3 minus Day −1) between the oxycodone and saline treated rats” value is −10.7 %MPE. Moreover, the “onset of action, analgesia occurring” value in series [6] (orally administered) is not above 30 min. The “analgesic action apparent (onset)” value in series [6] (parenterally administered) is not above 15 min.
